In patent publication US12497666B2, “Nucleic acid biomarker and use thereof” (Daiichi Sankyo Co., Ltd., priority 2013, dated 2025):
Read-outs that look alike come from different tables or passages of the source.

Tests used:
[1] = tested on: Stage IIIb/IV NSCLC; details: for On-Study Death / Primary Cause of On-Study Death: Adverse Event / Primary Cause of On-Study Death: Disease Progression / Primary Reason for Discontinuing Study Treatment: Death / Primary Reason for Discontinuing Study Treatment: Progressive Disease (Radiographic Progression): Enrolled/Randomized set; for objective response (CR or PR) / disease control rate: HRG high
Method: (§1) In both portions of the study, subjects received 150 mg of erlotinib orally once daily. […] Tumors were to be assessed every 6 weeks (±3 days) up to the first 24 weeks of the study, then every 12 weeks (+7 days) independent of treatment cycle.
All efficacy analyses were performed on the full analysis set, which includes all subjects in the randomized analysis set who received at least one dose of randomized study medication. The primary efficacy endpoint was PFS. PFS is defined as the time from the date of randomization to the earlier of the dates of the first objective documentation of radiographic disease progression or death due to any cause. A subject who was alive with no Objective documentation of (radiographic) disease progression by the data cut-off date was to be censored at the date of the last evaluable tumor assessment. The key secondary efficacy endpoint, overall survival, was defined as the time from the date of randomization to death due to any cause and was analyzed in the same manner as the primary efficacy endpoint PFS.
Kaplan-Meier curves were generated for PFS and used to calculate medians and 95% CIs for each treatment group. […] Cox's proportional hazards model.
The stratification factors included histology (Adenocarcinoma vs Non-Adenocarcinoma) and best response to prior therapy (CR/PR/SD vs PD).
Unless otherwise indicated, log-rank p-values and HRs for PFS and OS were based on the primary analysis adjusted for the stratification factors at randomization as described above.

[2] = tested on: Stage IIIb/IV NSCLC
Method: as §1
Subjects were also administered 150 mg/day erlotinib during the phase 2 trial.

[3] = Full Analysis Set, Kaplan-Meier, placebo + erlotinib
[4] = Full Analysis Set, placebo + erlotinib
[5] = HRG high (dCt<3.9), placebo + erlotinib
[6] = HRG high and EGFR wild type, placebo + erlotinib
[7] = 18 mg/kg patritumab + erlotinib
[8] = Full Analysis Set, 9 mg/kg patritumab + erlotinib
[9] = Full Analysis Set, 18 mg/kg patritumab + erlotinib
[10] = Full Analysis Set, Kaplan-Meier, 9 mg/kg patritumab + erlotinib
[11] = Full Analysis Set, Kaplan-Meier, 18 mg/kg patritumab + erlotinib
[12] = HRG high (dCt<3.9), 9 mg/kg patritumab + erlotinib
[13] = HRG high (dCt<3.9), 18 mg/kg patritumab + erlotinib
[14] = HRG high (dCt<3.9), patritumab doses combined + erlotinib
[15] = HRG high and EGFR wild type, 9 mg/kg patritumab + erlotinib
[16] = HRG high and EGFR wild type, 18 mg/kg patritumab + erlotinib
[17] = HRG high and EGFR wild type, patritumab doses combined + erlotinib
[18] = HRG low, 9 mg/kg patritumab + erlotinib
[19] = HRG low, 18 mg/kg patritumab + erlotinib
[20] = HRG low, patritumab doses combined + erlotinib

With “erlotinib [Placebo + erlotinib, reference compound]” the “On-Study Death” value ([1]; placebo + erlotinib) was 13 (18.3%) subjects (%), the “Primary Cause of On-Study Death: Adverse Event” value (“Primary Cause … Adverse Event” below) ([1]; placebo + erlotinib) was 5 (7.0%) subjects (%) and the “Primary Cause of On-Study Death: Disease Progression” value (shortened to “Primary Cause … Disease Progression”) ([1]; placebo + erlotinib) was 8 (11.3%) subjects (%). The “Primary Reason for Discontinuing Study Treatment: Death” value (shortened to “Primary Reason … Death”) ([1]; placebo + erlotinib) was 4 (5.6%) subjects (%), the “Primary Reason for Discontinuing Study Treatment: Progressive Disease (Radiographic Progression)” value (from here on “Primary Reason … (Radiographic Progression)”) ([1]; placebo + erlotinib) was 50 (70.4%) subjects (%) and the “Overall Survival, time to event, Median” value [1, 3] was 7.2 months. The “Progression-Free Survival, time to event, Median” value (from here on “Progression-Free Survival, time”) [1, 3] was 1.6 months, the “Subjects (%) with events, OS” value [1, 4] was 48 (67.6%) subjects (%) and the “Subjects (%) with events, PFS” value [1, 4] was 59 (83.1%) subjects (%). For the same substance, the “number of subjects with the response being CP/PR” value (from here on “number of subjects”) [1, 4] was 4 (5.6%) subjects (%), the “OS Rate at 1 Year (%)” value [1, 5] was 32.4% and the “OS Rate at 6 Months (%)” value [1, 5] was 49.4%. The “OS Rate at 9 Months (%)” value [1, 5] was 49.4%, the “PFS Rate at 8 Weeks (%)” value [1, 5] was 31.3% and the “PFS Rate at 14 Weeks (%)” value [1, 5] was 18.8%. The “PFS Rate at 26 Weeks (%)” value [1, 5] was 0.0%, the “Progression-Free Survival, time” value [1, 5] was 1.4 months and the “Subjects (%) with events, OS” value [1, 5] was 11 (61.1%) subjects (%). For the same substance, the “Subjects (%) with events, PFS” value [1, 5] was 16 (88.9%) subjects (%), the “Overall Survival, time to event, Median” value ([1]; HRG high (dCt<3.9), preliminary, placebo + erlotinib) was 5.0 months and the “Progression-Free Survival, time” value [1, 6] was 1.4 months. For the same substance, the “Subjects (%) with events, PFS” value [1, 6] was 8 ( 88.9%) subjects (%), the “objective response (CR or PR)” value ([1]; placebo + erlotinib) was 1 (5.6%) subjects (%) and the disease control rate ([1]; placebo plus erlotinib) was 22.2%. For the same substance, the “Overall Survival, time to event, Median” value ([1]; HRG low, placebo + erlotinib) was 8.0 months, the “Progression-Free Survival, time” value ([1]; HRG low, placebo + erlotinib) was 1.4 months and the “Subjects (%) with events, OS” value ([1]; HRG low, placebo + erlotinib) was 11 (68.8%) subjects (%). For the same substance, the “Subjects (%) with events, PFS” value ([1]; HRG low, placebo + erlotinib) was 13 ( 81.3%) subjects (%).

For “patritumab + erlotinib: combination of 150 mg erlotinib daily and anti-HER3 antibody patritumab IV every 3 weeks (18 mg/kg, or 18 mg/kg loading with 9 mg/kg maintenance)”, the response ([2]; Phase 1b, 7 subjects) was “No response was recorded”, the “grade of reported AEs” value ([2]; in vivo) was “Most reported AEs were grade 1 or 2” and the “patritumab-related AE: decreased appetite” value ([2]; in vivo) was 2 subjects. For the same substance, the “serious AEs” value ([2]; in vivo) was “Three subjects had four serious AEs”, the “HR (pooled dose vs placebo) for PFS in the HRG high group” value (shortened to “HR (pooled dose vs placebo) for PFS”) ([1]; Cut-off for delta Ct 2.7 (first quartile)) was 0.180 and the “HR (pooled dose vs placebo) for PFS” value ([1]; Cut-off for delta Ct 3.0) was 0.177. For the same substance, the “HR (pooled dose vs placebo) for PFS” value ([1]; Cut-off for delta Ct 3.5) was 0.283, the “HR (pooled dose vs placebo) for PFS” value ([1]; Cut-off for delta Ct 3.9 (median)) was 0.324 and the “HR (pooled dose vs placebo) for PFS” value ([1]; Cut-off for delta Ct 4.5) was 0.490. For the same substance, the “HR (pooled dose vs placebo) for PFS” value ([1]; Cut-off for delta Ct 5.0 (third quartile)) was 0.561, the “On-Study Death” value ([1]; 9 mg/kg patritumab + erlotinib) was 9 (12.5%) subjects (%) and the “Primary Cause … Adverse Event” value ([1]; 9 mg/kg patritumab + erlotinib) was 4 (5.6%) subjects (%). For the same substance, the “Primary Cause … Disease Progression” value ([1]; 9 mg/kg patritumab + erlotinib) was 4 (5.6%) subjects (%), the “Primary Reason … Death” value ([1]; 9 mg/kg patritumab + erlotinib) was 2 (2.8%) subjects (%) and the “Primary Reason … (Radiographic Progression)” value ([1]; 9 mg/kg patritumab + erlotinib) was 45 (62.5%) subjects (%). The “On-Study Death” value [1, 7] was 20 (27.8%) subjects (%), the “Primary Cause … Adverse Event” value [1, 7] was 11 (15.3%) subjects (%) and the “Primary Cause … Disease Progression” value [1, 7] was 8 (11.1%) subjects (%). For the same substance, the “Primary Reason … Death” value [1, 7] was 11 (15.3%) subjects (%), the “Primary Reason … (Radiographic Progression)” value [1, 7] was 42 (58.3%) subjects (%) and the “Subjects (%) with events, OS” value [1, 8] was 46 (64.8%) subjects (%). For the same substance, the “Subjects (%) with events, PFS” value [1, 8] was 52 (73.2%) subjects (%), the “Subjects (%) with events, OS” value [1, 9] was 54 (77.1%) subjects (%) and the “Subjects (%) with events, PFS” value [1, 9] was 58 (82.9%) subjects (%). For the same substance, the “Overall Survival, time to event, Median” value [1, 10] was 6.3 months, the “Progression-Free Survival, time” value [1, 10] was 2.5 months and the “Overall Survival, time to event, Median” value [1, 11] was 5.3 months. For the same substance, the “Progression-Free Survival, time” value [1, 11] was 1.4 months, the “number of subjects” value ([1]; Full Analysis Set, high-dose patritumab + erlotinib) was 5 (7.1%) subjects (%) and the “number of subjects” value ([1]; Full Analysis Set, low-dose patritumab + erlotinib) was 9 (12.9%) subjects (%). The “OS Rate at 1 Year (%)” value [1, 12] was 49.2%, the “OS Rate at 6 Months (%)” value [1, 12] was 68.8% and the “OS Rate at 9 Months (%)” value [1, 12] was 56.3%. The “PFS Rate at 8 Weeks (%)” value [1, 12] was 67.7%, the “PFS Rate at 14 Weeks (%)” value [1, 12] was 33.9% and the “PFS Rate at 26 Weeks (%)” value [1, 12] was 20.3%. For the same substance, the “Progression-Free Survival, time” value [1, 12] was 3.0 months, the “Subjects (%) with events, OS” value [1, 12] was 9 (56.3%) subjects (%) and the “Subjects (%) with events, PFS” value [1, 12] was 12 (75.0%) subjects (%). The “OS Rate at 1 Year (%)” value [1, 13] was 22.2%, the “OS Rate at 6 Months (%)” value [1, 13] was 50.7% and the “OS Rate at 9 Months (%)” value [1, 13] was 44.3%. For the same substance, the “PFS Rate at 8 Weeks (%)” value [1, 13] was 56.3%, the “PFS Rate at 14 Weeks (%)” value [1, 13] was 50.0% and the “PFS Rate at 26 Weeks (%)” value [1, 13] was 15.6%. For the same substance, the “Progression-Free Survival, time” value [1, 13] was 3.4 months, the “Subjects (%) with events, OS” value [1, 13] was 12 (70.6%) subjects (%) and the “Subjects (%) with events, PFS” value [1, 13] was 13 (76.5%) subjects (%). The “OS Rate at 1 Year (%)” value [1, 14] was 35.8%, the “OS Rate at 6 Months (%)” value [1, 14] was 59.6% and the “OS Rate at 9 Months (%)” value [1, 14] was 50.2%. The “PFS Rate at 8 Weeks (%)” value [1, 14] was 62.1%, the “PFS Rate at 14 Weeks (%)” value [1, 14] was 42.5% and the “PFS Rate at 26 Weeks (%)” value [1, 14] was 18.4%. The “Progression-Free Survival, time” value [1, 14] was 3.0 months, the “Subjects (%) with events, OS” value [1, 14] was 21 (63.6%) subjects (%) and the “Subjects (%) with events, PFS” value [1, 14] was 25 (75.8%) subjects (%). The “Overall Survival, time to event, Median” value ([1]; HRG high (dCt<3.9), preliminary, 9 mg/kg patritumab + erlotinib) was 10.6 months, the “Overall Survival, time to event, Median” value ([1]; HRG high (dCt<3.9), preliminary, 18 mg/kg patritumab + erlotinib) was 6.1 months and the “Overall Survival, time to event, Median” value ([1]; HRG high (dCt<3.9), preliminary, patritumab doses combined + erlotinib) was 9.7 months. For the same substance, the “Progression-Free Survival, time” value [1, 15] was 2.8 months, the “Subjects (%) with events, PFS” value [1, 15] was 6 ( 85.7%) subjects (%) and the “Progression-Free Survival, time” value [1, 16] was 2.8 months. For the same substance, the “Subjects (%) with events, PFS” value [1, 16] was 5 (100.0%) subjects (%), the “Progression-Free Survival, time” value [1, 17] was 2.8 months and the “Subjects (%) with events, PFS” value [1, 17] was 11 (91.7%) subjects (%). The disease control rate ([1]; 9 mg/kg patritumab plus erlotinib) was 62.5%, the disease control rate ([1]; 18 mg/kg patritumab plus erlotinib) was 52.9% and the “objective response (CR or PR)” value ([1]; high-dose patritumab + erlotinib) was “No subject”. For the same substance, the “objective response (CR or PR)” value ([1]; low-dose patritumab + erlotinib) was 4 (25.0%) subjects (%), the “Overall Survival, time to event, Median” value [1, 18] was 6.3 months and the “Progression-Free Survival, time” value [1, 18] was 2.1 months. For the same substance, the “Subjects (%) with events, OS” value [1, 18] was 10 ( 66.7%) subjects (%), the “Subjects (%) with events, PFS” value [1, 18] was 12 ( 80.0%) subjects (%) and the “Overall Survival, time to event, Median” value [1, 19] was 9.6 months. The “Progression-Free Survival, time” value [1, 19] was 1.4 months, the “Subjects (%) with events, OS” value [1, 19] was 12 ( 63.2%) subjects (%) and the “Subjects (%) with events, PFS” value [1, 19] was 13 ( 68.4%) subjects (%). For the same substance, the “Overall Survival, time to event, Median” value [1, 20] was 9.3 months, the “Progression-Free Survival, time” value [1, 20] was 1.9 months and the “Subjects (%) with events, OS” value [1, 20] was 22 ( 64.7%) subjects (%). For the same substance, the “Subjects (%) with events, PFS” value [1, 20] was 25 ( 73.5%) subjects (%), the “improvement in PFS or OS as compared to erlotinib plus placebo” value ([1]; full analysis set) was “no significant improvement in PFS or OS” and the “treatment difference in PFS and OS” value ([1]; subjects with tumors expressing low levels of HRG (dCt>3.9)) was “no clear treatment difference in PFS and OS”.
